ChEMBL document CHEMBL5649166, “RIP3 induces apoptosis independent of pronecrotic kinase activity” (Mol Cell, 2014)

How the values were obtained:
[1] = biological target: T1, Homeodomain-interacting protein kinase 4 (Homo sapiens) (UniProt Q8NE63); assay: Inhibition of human HIPK4 using myelin basic protein as substrate at 1 uM in presence of 32P-ATP by Hotspot assay relative to control; values are per cent of control
T1 sequence (whole entry): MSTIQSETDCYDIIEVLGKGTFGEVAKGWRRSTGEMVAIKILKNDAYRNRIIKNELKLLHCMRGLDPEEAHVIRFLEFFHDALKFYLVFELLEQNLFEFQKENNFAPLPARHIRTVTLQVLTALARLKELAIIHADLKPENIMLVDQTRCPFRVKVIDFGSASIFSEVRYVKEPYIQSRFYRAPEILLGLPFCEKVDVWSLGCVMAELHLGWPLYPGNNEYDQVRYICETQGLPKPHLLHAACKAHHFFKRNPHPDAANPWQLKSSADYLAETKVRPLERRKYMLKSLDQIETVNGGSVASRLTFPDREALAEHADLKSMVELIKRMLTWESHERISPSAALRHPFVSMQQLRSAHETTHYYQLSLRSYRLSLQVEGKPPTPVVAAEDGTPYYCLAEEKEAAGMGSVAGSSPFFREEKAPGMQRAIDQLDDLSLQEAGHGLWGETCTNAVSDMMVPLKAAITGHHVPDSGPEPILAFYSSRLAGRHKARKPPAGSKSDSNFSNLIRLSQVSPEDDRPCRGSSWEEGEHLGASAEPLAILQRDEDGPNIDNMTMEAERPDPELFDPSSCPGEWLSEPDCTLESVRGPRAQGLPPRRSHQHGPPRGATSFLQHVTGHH

[2] = biological target: Tyrosine-protein kinase Lyn (Homo sapiens) (UniProt P07948); assay: Inhibition of human LYN B using poly[Glu:Tyr] (4:1) as substrate at 1 uM in presence of 32P-ATP by Hotspot assay relative to control; values are per cent of control
Chain of Tyrosine-protein kinase Lyn (Homo sapiens) (P07948 2-512 limits assumed): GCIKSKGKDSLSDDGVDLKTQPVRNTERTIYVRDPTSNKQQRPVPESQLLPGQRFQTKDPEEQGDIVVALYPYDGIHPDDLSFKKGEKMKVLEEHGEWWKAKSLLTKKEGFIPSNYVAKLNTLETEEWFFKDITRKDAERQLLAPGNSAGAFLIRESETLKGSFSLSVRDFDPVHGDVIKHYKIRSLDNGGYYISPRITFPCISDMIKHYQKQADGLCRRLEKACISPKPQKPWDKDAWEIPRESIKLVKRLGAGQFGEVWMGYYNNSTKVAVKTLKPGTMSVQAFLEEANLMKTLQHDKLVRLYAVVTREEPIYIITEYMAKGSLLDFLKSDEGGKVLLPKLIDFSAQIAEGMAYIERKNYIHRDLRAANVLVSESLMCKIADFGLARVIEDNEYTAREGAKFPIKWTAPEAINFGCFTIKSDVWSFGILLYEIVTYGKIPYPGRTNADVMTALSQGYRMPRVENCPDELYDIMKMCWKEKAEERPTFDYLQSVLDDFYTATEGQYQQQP

[3] = biological target: T2, Serine/threonine-protein kinase D3 (Homo sapiens) (UniProt O94806); assay: Inhibition of human PKCnu/PRKD3 using KKLNRTLSVA as substrate at 1 uM in presence of 32P-ATP by Hotspot assay relative to control; values are per cent of control
T2 sequence (whole entry): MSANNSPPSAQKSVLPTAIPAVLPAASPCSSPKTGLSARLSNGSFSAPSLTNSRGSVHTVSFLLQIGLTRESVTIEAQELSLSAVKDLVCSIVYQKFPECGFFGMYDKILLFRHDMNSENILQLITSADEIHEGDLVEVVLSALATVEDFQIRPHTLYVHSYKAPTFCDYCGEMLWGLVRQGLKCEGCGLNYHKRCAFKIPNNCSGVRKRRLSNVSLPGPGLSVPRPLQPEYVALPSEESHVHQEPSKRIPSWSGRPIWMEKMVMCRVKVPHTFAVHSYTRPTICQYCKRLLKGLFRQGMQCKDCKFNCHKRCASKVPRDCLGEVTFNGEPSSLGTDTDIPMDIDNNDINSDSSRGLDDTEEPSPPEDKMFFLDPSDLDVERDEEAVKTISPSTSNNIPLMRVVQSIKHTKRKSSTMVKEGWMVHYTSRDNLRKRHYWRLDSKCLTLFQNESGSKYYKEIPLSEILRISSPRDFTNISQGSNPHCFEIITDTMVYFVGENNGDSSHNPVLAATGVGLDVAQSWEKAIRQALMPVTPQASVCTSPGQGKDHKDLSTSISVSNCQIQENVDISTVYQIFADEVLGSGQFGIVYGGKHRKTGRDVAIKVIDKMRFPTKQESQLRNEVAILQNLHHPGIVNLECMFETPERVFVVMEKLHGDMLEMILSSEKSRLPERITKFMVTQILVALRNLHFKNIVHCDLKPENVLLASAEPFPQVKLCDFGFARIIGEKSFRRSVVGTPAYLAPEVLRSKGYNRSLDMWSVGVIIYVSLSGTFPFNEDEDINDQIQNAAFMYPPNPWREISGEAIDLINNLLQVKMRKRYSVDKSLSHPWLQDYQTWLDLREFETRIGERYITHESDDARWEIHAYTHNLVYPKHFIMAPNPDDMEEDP

[4] = biological target: T3, Inhibitor of nuclear factor kappa-B kinase subunit epsilon (Homo sapiens) (UniProt Q14164); assay: Inhibition of human IKKe/IKBKE using casein as substrate at 1 uM in presence of 32P-ATP by Hotspot assay relative to control; values are per cent of control
T3 sequence (whole entry): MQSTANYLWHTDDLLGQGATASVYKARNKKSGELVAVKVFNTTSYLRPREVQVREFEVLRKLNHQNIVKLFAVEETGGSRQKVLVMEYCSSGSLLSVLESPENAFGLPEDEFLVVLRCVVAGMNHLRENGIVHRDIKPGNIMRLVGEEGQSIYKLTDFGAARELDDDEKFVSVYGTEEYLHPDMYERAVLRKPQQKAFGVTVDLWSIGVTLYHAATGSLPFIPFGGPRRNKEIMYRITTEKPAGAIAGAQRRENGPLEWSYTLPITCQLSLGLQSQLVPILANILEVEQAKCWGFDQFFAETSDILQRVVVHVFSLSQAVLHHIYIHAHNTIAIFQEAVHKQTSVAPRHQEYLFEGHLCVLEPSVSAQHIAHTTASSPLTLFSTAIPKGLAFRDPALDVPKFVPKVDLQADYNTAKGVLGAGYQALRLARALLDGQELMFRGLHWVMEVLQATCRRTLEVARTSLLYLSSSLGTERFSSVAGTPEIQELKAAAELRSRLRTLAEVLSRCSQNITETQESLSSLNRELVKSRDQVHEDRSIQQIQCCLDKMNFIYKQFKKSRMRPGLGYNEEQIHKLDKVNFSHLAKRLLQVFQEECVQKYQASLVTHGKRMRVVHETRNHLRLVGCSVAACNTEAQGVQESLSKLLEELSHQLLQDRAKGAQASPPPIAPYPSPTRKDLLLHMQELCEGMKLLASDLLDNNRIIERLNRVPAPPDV

Structure (SMILES): CC(C)S(=O)(=O)c1ccc2nccc(Nc3ccc4scnc4c3)c2c1
- residual activity [1]: 93.7%
- residual activity [2]: 74.6%
- residual activity [3]: 95.4%
- residual activity [4]: 97.7%

Structure (SMILES): Cc1cc(-c2cnc(N)c3c(-c4ccc5scnc5c4)csc23)n(C)n1
- residual activity [1]: 106%
- residual activity [2]: 14%
- residual activity [3]: 33.4%
- residual activity [4]: 97.9%

Structure (SMILES): CNC(=O)c1ccc2c(c1)ncn2-c1ccc(CC(=O)OC(C)(C)C)cc1
- residual activity [1]: 107%
- residual activity [2]: 89.2%
- residual activity [3]: 101%
- residual activity [4]: 100%
